Data published in patent US6858589B2, “Methods of and compositions for potentiating the action of agents active on cell wall sites of the susceptible bacteria” (priority 1996, dated 2005).

Tests used:
E. coli NCTC 10418 = experiment: Kill kinetics and regrowth of E. coli after gentamicin bolus pre-exposure followed by maintained cephazolin; type: cell-based, Escherichia coli; conditions: then cephazolin 0 mg/L
Description: In comparative experiments described in the examples herein, a reference strain of Escherichi coli (E. coli NCTC 10418) was exposed to constant concentrations of cephazolin in the culture medium (see FIGS. 1A and IIA).
The experimental work described herein involved testing bacterial response while changing aminoglycoside concentrations with time in the test tube, and mimics closely measurements made in man under clinical conditions (Bastone E B, Li S C, Ioannides-Demos L L, Spicer J., McLean A J, “Kill kinetics and regrowth patterns of E. coli exposed to gentamicin concentration-time profiles simulating in vivo bolus or infusion dosing”, Antimicrob Agents Chemother. 37:914-917, 1993).
The form of this profile is governed in vivo by distribution into tissue from the central circulation. In in vitro experiments, gentamicin was removed (T=0 time) by centrifugation and washing with antibiotic-free medium. The incubation was reconstituted with media containing 0 mg/l, 1 mg/l or 2 mg/l cephazolin (see FIG. IA).
In FIG. IB, it can be seen that the pattern of growth of control organisms (not exposed to antibiotic) is designated by the dotted line ( - - - ), while the growth patterns of test organisms are represented by the solid lines with symbols indicating each type of treatment or test (FIG. IB).

[1] = Gentamicin concentration-time profile measured in the in vitro culture medium
Protocol: The aminoglycoside reached a peak concentration of 4 mg/l 30 minutes post-dose and was removed from the E. coli culture by washing. Medium containing 0, 2, 2.5 and 3 mg/l gentamicin was reconstituted and added to the culture at 1 hour after initial exposure to the aminoglycoside (n=6).
With each antibiotic, concentration-time profiles similar to those observed in the blood of clinical patients following conventional intravenous dosing of an aminoglycoside (gentamicin) and pump-driven profiles of gentamicin and cephalosporin (cephazolin) were attained. The concentration-time profiles for each drug class have the general form shown in FIG. IA and FIG. IIIA of the accompanying drawings. Additionally a gentamicin profile of the form shown in FIG. IIIA was generated, which reached a peak of 12 mg/l over 3 hours, was maintained at 12 mg/l for a further hour, then was reconstituted to a range of steady-state concentrations (0, 0.5, 1.0, 2.0, 3.0, 4.0 mg/l) to yield the experimental results shown in Table 4.

[2] = system: blood culture isolate of cMRSA; experiment: MIC and MBC for the cMRSA isolate; type: cell-based, Staphylococcus aureus; conditions: mecA positive
Protocol: The student test was used for statistical analysis with a significant level of 0.05, it was performed using the Sigma Stat 32 program (SPSS Inc 1992-1997).

[3] = system: blood culture isolate of cMRSA; experiment: Kill kinetics and regrowth patterns of cMRSA exposed to gentamicin profiles and constant beta-lactam; type: cell-based, Staphylococcus aureus
Protocol: FIGS. 5a and 5b Kill kinetics and regrowth patterns of a clinical isolate of cMRSA.
The CMRSA isolate was cultured in the presence of gentamicin (Delta West, Bentleigh, Australia). An overnight culture of cMRSA in brain heart infusion broth (BHIB) (Oxoid, Bainstoke, England) was diluted to 10^7 CFU/ml in 0.1% peptone water (Oxoid, Bainstoke, England). A 1 ml sample of the 10^7 CFU/ml culture was added to the experimental culture broth, resulting in an initial density of 10^6 CFU/ml. In vitro concentration-time modeling of clinical plasma gentamicin concentration-time profiles assumed linear extrapolation of in vivo data as reported previously.^18 (Bastone et al Antimicrobial Agents and Chemotherapy 37(4): 914-917, 1993). […] Other profiles were constructed by linear extrapolation of these profiles and included 7 and 16 mg/l bolus and infusion profiles. Colony counts were performed at times 0, 0.5, 2.5, 4.5, 6.5, 8.5, 10.5, 24.5 and 48.5 hours for bolus profiles and times 0, 1, 3, 5, 7, 9, 11, 25 and 49 hours for infusion profiles.
In the experiments involving cephazolin the concentration was maintained at 4 mg/l in the BHIB for the entire 48.5 hours. For the experiments involving flucloxacillin the concentration of flucloxacillin was maintained at 2 mg/l for 48.5 hours. Colony counts were performed at times 0, 0,5, 2.5, 4.5, 6.5, 8.5, 10.5, 24.5 and 48.5 hours. […] These included cMRSA in a drug free broth, cMRSA exposed to a bolus profile of gentamicin with a target Cpeak 30 of 6 mg/l only, cMRSA exposed to […] of flucloxacillin only.
All experiments involved six replicates. Gentamicin concentrations were measured at times 0, 0.16, 0.33, 0.5, 2.5, 4.5, 6.5, 8.5, 10.5, 24.5 and 48.5 hours. Gentamicin assay concentrations were determined by fluorescence polarisation immunoassay (AxSYM, Abbot, Ill., U.S.A.) which has a threshold for detection of 0.3 mg/liter. […] (Gibaldi et al, pharmaceutics 2nd edn, 1982).
The blood culture cMRSA isolate was exposed to gentamicin in vitro simulating an in vivo bolus dosing regimen with varying 30 minute post dose concentrations of gentamicin. The same organism was then exposed to gentamicin in vitro simulating an in vivo bolus dosing regime with a 30 minute post dose concentration of 6 mg/l and constant concentration of 4 mg/l of cephazolin or 2 mg/l of flucloxacillin for 48 hours.

[4] = in vitro profile: peak 4 mg/liter, reconstituted to 3.0 mg/liter at 1 hr, maintained 0 hr (control)
[5] = in vitro profile: peak 4 mg/liter, reconstituted to 3.0 mg/liter at 1 hr, maintained 2 hr
[6] = in vitro profile: peak 4 mg/liter, reconstituted to 3.0 mg/liter at 1 hr, maintained 4 hr
[7] = in vitro profile: peak 4 mg/liter, reconstituted to 3.0 mg/liter at 1 hr, maintained 8 hr
[8] = in vitro profile: post-distribution peak 4 mg/liter, reconstituted at 1 hr to 0 mg/liter
[9] = in vitro profile: post-distribution peak 4 mg/liter, reconstituted at 1 hr to 2.0 mg/liter
[10] = in vitro profile: post-distribution peak 4 mg/liter, reconstituted at 1 hr to 2.5 mg/liter
[11] = in vitro profile: post-distribution peak 4 mg/liter, reconstituted at 1 hr to 3.0 mg/liter

Substance: gentamicin
- BACTERIAL COUNTS (E. coli NCTC 10418; 8 mg/L bolus gentamicin, 2 h): 1.32 ± 0.69 log10 cfu/mL
- BACTERIAL COUNTS (E. coli NCTC 10418; 8 mg/L bolus gentamicin, 8 h): 4.91 ± 0.70 log10 cfu/mL
- BACTERIAL COUNTS (E. coli NCTC 10418; 8 mg/L bolus gentamicin, 24 h): 8.88 ± 0.11 log10 cfu/mL
- BACTERIAL COUNTS (E. coli NCTC 10418; 8 mg/L bolus gentamicin, −0.5 h): 5.87 ± 0.35 log10 cfu/mL
- BACTERIAL COUNTS (E. coli NCTC 10418; 12 mg/L bolus gentamicin, 2 h): 0.69 ± 0.87 log10 cfu/mL
- BACTERIAL COUNTS (E. coli NCTC 10418; 12 mg/L bolus gentamicin, 8 h): 4.54 ± 1.15 log10 cfu/mL
- BACTERIAL COUNTS (E. coli NCTC 10418; 12 mg/L bolus gentamicin, 24 h): 8.80 ± 0.05 log10 cfu/mL
- BACTERIAL COUNTS (E. coli NCTC 10418; 12 mg/L bolus gentamicin, −0.5 h): 6.10 ± 0.26 log10 cfu/mL
- BACTERIAL COUNTS (E. coli NCTC 10418; 16 mg/L bolus gentamicin, 2 h): 0.48 ± 0.76 log10 cfu/mL
- BACTERIAL COUNTS (E. coli NCTC 10418; 16 mg/L bolus gentamicin, 8 h): 3.85 ± 1.24 log10 cfu/mL
- BACTERIAL COUNTS (E. coli NCTC 10418; 16 mg/L bolus gentamicin, 24 h): 8.79 ± 0.05 log10 cfu/mL
- BACTERIAL COUNTS (E. coli NCTC 10418; 16 mg/L bolus gentamicin, −0.5 h): 5.85 ± 0.050 log10 cfu/mL
- BACTERIAL COUNTS (E. coli NCTC 10418; 20 mg/L bolus gentamicin, 2 h): NGD
- BACTERIAL COUNTS (E. coli NCTC 10418; 20 mg/L bolus gentamicin, 8 h): 3.15 ± 0.734 log10 cfu/mL
- BACTERIAL COUNTS (E. coli NCTC 10418; 20 mg/L bolus gentamicin, 24 h): 8.81 ± 0.04 log10 cfu/mL
- BACTERIAL COUNTS (E. coli NCTC 10418; 20 mg/L bolus gentamicin, −0.5 h): 5.89 ± 0.03 log10 cfu/mL
- AUC 0-49 h [1, 4]: 3.93 ± 0.33 µg·h/mL
- Cmax [1, 4]: 6120 ± 350 ng/mL
- Cmin [1, 4]: 0 ng/mL
- AUC 0-49 h [1, 5]: 124.98 ± 3.08 µg·h/mL
- Cmax [1, 5]: 6230 ± 270 ng/mL
- Cmin [1, 5]: 2450 ± 240 ng/mL
- AUC 0-49 h [1, 6]: 120.99 ± 6.05 µg·h/mL
- Cmax [1, 6]: 6300 ± 450 ng/mL
- Cmin [1, 6]: 2370 ± 340 ng/mL
- AUC 0-49 h [1, 7]: 119.78 ± 8.84 µg·h/mL
- Cmax [1, 7]: 6370 ± 220 ng/mL
- Cmin [1, 7]: 2350 ± 190 ng/mL
- AUC 0-49 h [1, 8]: 3.97 ± 0.09 µg·h/mL
- Cmax [1, 8]: 6220 ± 330 ng/mL
- Cmin [1, 8]: 0 ng/mL
- AUC 0-49 h [1, 9]: 102.66 ± 6.91 µg·h/mL
- Cmax [1, 9]: 6320 ± 250 ng/mL
- Cmin [1, 9]: 1930 ± 240 ng/mL
- AUC 0-49 h [1, 10]: 124.40 ± 4.27 µg·h/mL
- Cmax [1, 10]: 6230 ± 230 ng/mL
- Cmin [1, 10]: 2470 ± 310 ng/mL
- AUC 0-49 h [1, 11]: 153.43 ± 11.01 µg·h/mL
- Cmax [1, 11]: 6280 ± 370 ng/mL
- Cmin [1, 11]: 2880 ± 230 ng/mL
- MBC [2]: 4 µg/mL
- MIC [2]: 1 µg/mL
- Outcome of exposure ([3]; each agent alone): complete kill or eradication was not achieved
- Time at which regrowth phase began ([3]; gentamicin bolus and infusion profiles, target Cpeak30 7 mg/l): 24.5 h
- Regrowth ([3]; gentamicin bolus and infusion profiles, target Cpeak30 16 mg/l): no regrowth
- Time at which early bactericidal effect was evident ([3]; gentamicin only, bolus profile Cpeak30 6 mg/l): ≤ 0.5 h
